Laboratory results: patent publication US9050341B2, “Methods of treating drug resistant and other tumors by administering 6,7-dialkoxy quinazoline derivatives” (NATCO PHARMA LIMITED, priority 2009, dated 2015)

Columns and labels:
[1] = Acute oral toxicity (MTD) in Swiss albino mice; format: in vivo; conditions: for clinical signs of toxicity: oral, 1000 mg/kg (high dose), mono hydrochloride, 1000 mg/kg
Method: 20 male and 20 female Swiss albino mice were randomly divided into four groups (G1-G4). Each group was 5 male and 5 female Swiss albino mice. […] G1 was treated with placebo and served as a control. […] The mid dose group animals (G3-treated with 500 mg/kg b.wt) were administered the dose formulation twice with a gap of approximately 1 hour. Animals from high dose group (G4-treated with 1000 mg/kg b.wt) received the dose formulation four times with a gap of approximately one hour.

[2] = Toxicokinetics in the 30 day repeated dose study in beagle dogs; format: in vivo
Method: The 30 day repeated dose study employed 12 male and 12 female dogs (Marshall's Farm, China). The dogs were acclimatized for a minimum period of 2 weeks and randomly divided into four main groups (G1-G4), each group comprising of 3 dogs per sex. The animals were dosed orally with capsules of NRC-2694A for a period of 30 consecutive days at dose levels of 10 mg/kg b.wt/day (G2-low dose), 20 mg/kg b.wt/day (G3-mid dose) and 40 mg/kg b.wt/day (G4-high dose). […] The control group (G1-0 mg/kg b. wt/day) animals were dosed by oral capsule with placebo.
The study also tracked body weight (weekly), food consumption (daily), opthalmological status (start and end), hematological and biochemical analyses (start and end), toxicokinetics analysis of plasma (start and end). At the end of the study, all dogs were euthanized by a humane and accepted procedure, subjected to a gross post-mortem examination, organ weights (absolute and relative) were determined, and histopathological examination was carried out.
The toxicokinetic parameters viz.

YANK2 = target: T1, YANK2 (Homo sapiens, UniProt Q9NY57); assay: KinomeScan kinase profiling; format: binding
T1 construct: purchased Ambit Biosciences Corp (KinomeScan); host or cells: E. coli host derived from the BL21 strain (T7 phage lysate)
T1 sequence (Q9NY57 whole entry): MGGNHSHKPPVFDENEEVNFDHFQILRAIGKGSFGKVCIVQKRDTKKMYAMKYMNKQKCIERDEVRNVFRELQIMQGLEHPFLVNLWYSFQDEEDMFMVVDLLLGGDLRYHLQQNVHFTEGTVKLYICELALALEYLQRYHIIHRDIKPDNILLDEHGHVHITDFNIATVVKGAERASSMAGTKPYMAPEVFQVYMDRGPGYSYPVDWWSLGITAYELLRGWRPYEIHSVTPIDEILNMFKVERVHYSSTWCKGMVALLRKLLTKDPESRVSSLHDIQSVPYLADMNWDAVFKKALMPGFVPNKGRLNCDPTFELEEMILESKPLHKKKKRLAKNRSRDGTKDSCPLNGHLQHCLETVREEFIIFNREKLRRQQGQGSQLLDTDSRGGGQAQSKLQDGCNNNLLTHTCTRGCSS

PRKCD = target: T2, PRKCD (Homo sapiens, UniProt Q05655); assay: KinomeScan kinase profiling; format: binding
T2 construct: purchased Ambit Biosciences Corp (KinomeScan); host or cells: E. coli host derived from BL21, infected with T7 phage
T2 sequence (Q05655 whole entry): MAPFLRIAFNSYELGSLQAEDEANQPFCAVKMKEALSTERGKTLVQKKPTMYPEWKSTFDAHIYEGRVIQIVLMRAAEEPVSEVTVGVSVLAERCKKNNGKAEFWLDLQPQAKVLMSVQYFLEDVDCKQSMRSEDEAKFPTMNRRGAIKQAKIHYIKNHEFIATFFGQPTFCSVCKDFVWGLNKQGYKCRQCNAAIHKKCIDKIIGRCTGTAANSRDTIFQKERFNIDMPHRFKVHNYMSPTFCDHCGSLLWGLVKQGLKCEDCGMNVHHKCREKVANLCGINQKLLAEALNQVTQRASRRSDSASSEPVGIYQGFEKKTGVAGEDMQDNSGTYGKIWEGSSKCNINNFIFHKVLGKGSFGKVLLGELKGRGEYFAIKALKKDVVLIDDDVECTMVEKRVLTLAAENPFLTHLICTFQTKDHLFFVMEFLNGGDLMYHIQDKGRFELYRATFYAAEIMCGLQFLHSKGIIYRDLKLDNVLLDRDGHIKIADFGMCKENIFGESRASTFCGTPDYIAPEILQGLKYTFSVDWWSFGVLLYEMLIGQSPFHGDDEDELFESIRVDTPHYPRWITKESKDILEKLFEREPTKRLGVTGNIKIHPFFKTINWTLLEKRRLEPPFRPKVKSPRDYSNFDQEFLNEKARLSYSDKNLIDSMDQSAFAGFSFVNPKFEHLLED

DYRK1B = target: T3, DYRK1B (Homo sapiens, UniProt Q9Y463); assay: KinomeScan kinase profiling; format: binding
T3 construct: purchased Ambit Biosciences Corp (KinomeScan); host or cells: T7 phage in E. coli host derived from BL21
T3 sequence (Q9Y463 whole entry): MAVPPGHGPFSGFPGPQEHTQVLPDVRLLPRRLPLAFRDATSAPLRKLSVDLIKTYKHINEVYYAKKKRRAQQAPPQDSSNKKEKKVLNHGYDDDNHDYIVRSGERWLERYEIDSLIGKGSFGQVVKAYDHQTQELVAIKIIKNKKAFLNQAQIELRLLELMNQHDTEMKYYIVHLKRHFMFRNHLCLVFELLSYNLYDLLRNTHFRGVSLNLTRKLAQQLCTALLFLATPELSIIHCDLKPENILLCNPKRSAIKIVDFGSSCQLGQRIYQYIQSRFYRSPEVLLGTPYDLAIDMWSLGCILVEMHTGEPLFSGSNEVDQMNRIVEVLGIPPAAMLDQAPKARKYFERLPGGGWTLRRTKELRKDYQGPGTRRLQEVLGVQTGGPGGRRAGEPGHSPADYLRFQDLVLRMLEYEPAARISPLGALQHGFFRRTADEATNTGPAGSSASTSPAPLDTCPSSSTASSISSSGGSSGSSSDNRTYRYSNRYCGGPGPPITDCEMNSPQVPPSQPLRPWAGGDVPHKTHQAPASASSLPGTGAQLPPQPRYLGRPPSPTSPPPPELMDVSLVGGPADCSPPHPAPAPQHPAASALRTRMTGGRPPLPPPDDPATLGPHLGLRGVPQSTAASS

DCAMKL2 = target: T4, DCAMKL2 (Homo sapiens, UniProt Q8N568); assay: KinomeScan kinase profiling; format: binding
T4 construct: purchased Ambit Biosciences Corp (KinomeScan); host or cells: T7 phage in E. coli host derived from BL21
T4 sequence (Q8N568 whole entry): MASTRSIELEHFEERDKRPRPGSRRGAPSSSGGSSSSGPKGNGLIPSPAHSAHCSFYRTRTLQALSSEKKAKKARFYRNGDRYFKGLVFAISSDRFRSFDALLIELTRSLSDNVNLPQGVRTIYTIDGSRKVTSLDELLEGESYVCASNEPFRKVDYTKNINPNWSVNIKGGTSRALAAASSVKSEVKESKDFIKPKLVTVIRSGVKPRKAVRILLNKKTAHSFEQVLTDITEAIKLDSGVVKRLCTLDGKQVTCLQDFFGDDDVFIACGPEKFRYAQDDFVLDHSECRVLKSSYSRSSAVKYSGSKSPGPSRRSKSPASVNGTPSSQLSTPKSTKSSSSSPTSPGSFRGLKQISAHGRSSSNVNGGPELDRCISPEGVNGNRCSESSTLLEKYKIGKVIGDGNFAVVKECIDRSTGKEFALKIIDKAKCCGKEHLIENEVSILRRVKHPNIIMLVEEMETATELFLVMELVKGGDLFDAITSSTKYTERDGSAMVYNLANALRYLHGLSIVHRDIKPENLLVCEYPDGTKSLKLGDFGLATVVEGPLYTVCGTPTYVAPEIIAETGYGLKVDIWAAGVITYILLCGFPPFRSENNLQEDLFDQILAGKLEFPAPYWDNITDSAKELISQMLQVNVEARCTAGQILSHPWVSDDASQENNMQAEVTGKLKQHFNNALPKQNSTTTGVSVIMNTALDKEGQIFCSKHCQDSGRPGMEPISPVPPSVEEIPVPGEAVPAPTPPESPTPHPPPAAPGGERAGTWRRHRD

BMPR1A = target: T5, BMPR1A (Homo sapiens, UniProt P36894); assay: KinomeScan kinase profiling; format: binding
T5 construct: purchased Ambit Biosciences Corp (KinomeScan); host or cells: E. coli host derived from the BL21 strain, T7 phage

AKT1 = target: T6, AKT1 (Homo sapiens, UniProt P31749); assay: KinomeScan kinase profiling; format: binding
T6 construct: host or cells: E. coli host derived from BL21 (T7 phage lysate)
T6 sequence (P31749 whole entry): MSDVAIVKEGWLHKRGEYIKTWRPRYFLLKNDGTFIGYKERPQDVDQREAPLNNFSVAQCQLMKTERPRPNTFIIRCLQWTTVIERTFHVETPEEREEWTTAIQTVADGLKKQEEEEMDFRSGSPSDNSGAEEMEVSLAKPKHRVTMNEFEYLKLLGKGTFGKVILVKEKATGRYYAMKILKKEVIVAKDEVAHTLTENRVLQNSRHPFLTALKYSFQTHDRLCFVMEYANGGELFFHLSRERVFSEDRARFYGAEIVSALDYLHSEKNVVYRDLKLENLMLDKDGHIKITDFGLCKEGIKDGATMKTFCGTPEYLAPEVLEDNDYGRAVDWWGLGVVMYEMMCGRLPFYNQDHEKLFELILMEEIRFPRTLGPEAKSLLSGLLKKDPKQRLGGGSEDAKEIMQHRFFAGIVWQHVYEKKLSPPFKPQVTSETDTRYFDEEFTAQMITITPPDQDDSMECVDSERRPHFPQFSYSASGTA

DCAMKL1 = target: T7, DCAMKL1 (Homo sapiens, UniProt O15075); assay: KinomeScan kinase profiling; format: binding
T7 construct: purchased Ambit Biosciences Corp (KinomeScan); host or cells: T7 phage in E. coli host derived from BL21

CAMK2B = target: T8, CAMK2B (Homo sapiens, UniProt Q13554); assay: KinomeScan kinase profiling; format: binding
T8 construct: purchased Ambit Biosciences Corp (KinomeScan); host or cells: E. coli host derived from the BL21 strain, T7 phage

MUSK = target: T9, MUSK (Homo sapiens, UniProt O15146); assay: KinomeScan kinase profiling; format: binding
T9 construct: host or cells: T7 phage in E. coli host derived from BL21
T9 sequence (O15146 24-869): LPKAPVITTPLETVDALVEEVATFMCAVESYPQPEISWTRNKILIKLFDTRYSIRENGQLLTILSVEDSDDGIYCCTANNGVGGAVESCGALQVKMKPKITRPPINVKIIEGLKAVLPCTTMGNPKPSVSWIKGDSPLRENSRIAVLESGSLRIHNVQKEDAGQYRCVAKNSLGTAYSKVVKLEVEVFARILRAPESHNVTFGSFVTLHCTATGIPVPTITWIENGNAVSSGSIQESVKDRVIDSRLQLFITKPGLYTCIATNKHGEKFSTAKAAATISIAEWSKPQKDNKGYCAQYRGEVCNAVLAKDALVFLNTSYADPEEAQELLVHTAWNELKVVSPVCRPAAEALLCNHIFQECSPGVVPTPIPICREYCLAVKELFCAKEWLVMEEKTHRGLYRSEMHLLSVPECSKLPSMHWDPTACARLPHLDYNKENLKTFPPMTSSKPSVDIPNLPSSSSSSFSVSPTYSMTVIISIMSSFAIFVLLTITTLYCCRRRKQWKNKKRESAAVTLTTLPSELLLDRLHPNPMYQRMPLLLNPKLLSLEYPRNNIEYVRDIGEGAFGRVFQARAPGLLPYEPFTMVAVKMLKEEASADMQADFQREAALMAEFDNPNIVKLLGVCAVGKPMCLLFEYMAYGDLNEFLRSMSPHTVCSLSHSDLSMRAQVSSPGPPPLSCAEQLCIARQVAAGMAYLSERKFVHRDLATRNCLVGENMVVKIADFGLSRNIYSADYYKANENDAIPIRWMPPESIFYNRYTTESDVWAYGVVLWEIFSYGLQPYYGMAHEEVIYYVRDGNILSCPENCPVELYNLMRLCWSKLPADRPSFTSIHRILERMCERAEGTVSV

ROS1 = target: T10, ROS1 (Homo sapiens, UniProt P08922); assay: KinomeScan kinase profiling; format: binding
T10 construct: host or cells: E. coli host derived from BL21, T7 phage lysate

FGFR1 = target: T11, FGFR1 (Homo sapiens, UniProt P11362); assay: KinomeScan kinase profiling; format: binding
T11 construct: host or cells: E. coli host derived from BL21, infected with T7 phage
T11 sequence (P11362 22-822): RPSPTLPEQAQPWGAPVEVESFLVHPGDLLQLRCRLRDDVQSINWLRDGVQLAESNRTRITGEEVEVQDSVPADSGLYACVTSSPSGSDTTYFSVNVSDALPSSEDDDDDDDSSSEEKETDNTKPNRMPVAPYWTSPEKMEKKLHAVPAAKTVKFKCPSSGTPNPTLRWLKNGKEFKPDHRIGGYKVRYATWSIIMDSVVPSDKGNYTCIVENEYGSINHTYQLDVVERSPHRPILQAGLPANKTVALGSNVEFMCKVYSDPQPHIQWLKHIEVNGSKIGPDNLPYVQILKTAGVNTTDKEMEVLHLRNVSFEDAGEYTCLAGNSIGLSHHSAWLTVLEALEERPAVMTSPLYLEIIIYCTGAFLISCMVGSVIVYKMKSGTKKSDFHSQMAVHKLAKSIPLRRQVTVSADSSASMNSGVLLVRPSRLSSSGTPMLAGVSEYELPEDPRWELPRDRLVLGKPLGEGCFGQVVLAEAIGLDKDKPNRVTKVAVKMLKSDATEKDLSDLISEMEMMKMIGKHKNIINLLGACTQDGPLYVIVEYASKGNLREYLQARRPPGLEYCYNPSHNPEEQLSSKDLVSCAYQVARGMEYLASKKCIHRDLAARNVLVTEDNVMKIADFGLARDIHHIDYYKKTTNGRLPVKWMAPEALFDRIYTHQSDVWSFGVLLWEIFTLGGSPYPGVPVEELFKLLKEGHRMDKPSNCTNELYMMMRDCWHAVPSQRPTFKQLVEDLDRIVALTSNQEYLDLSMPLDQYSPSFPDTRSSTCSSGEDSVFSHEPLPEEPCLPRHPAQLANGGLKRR

[3] = target: T12, RPS6KA2 (Kin.Dom.-1-N-terminal) (Homo sapiens, UniProt Q15349); assay: KinomeScan kinase profiling; format: binding
T12 construct: RPS6KA2 (Kin.Dom.-1-N-terminal); host or cells: E. coli host derived from BL21, T7 phage lysate
T12 sequence (Q15349 59-318 limits assumed): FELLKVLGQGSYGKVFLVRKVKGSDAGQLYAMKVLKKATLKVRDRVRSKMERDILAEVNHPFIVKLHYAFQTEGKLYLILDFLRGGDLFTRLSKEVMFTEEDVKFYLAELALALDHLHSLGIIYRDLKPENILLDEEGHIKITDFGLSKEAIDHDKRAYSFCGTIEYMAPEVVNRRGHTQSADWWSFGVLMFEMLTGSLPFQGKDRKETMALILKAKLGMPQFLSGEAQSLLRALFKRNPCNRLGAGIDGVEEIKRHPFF

C#Cc1cccc(Nc2ncnc3cc(OC)c(OCCCN4CCOCC4)cc23)c1.Cl [NRC-2694 monohydrochloride, N-(3-ethylnylphenyl)-7-methoxy-6-[3-(4-morpholinyl)propoxy]-4-quinazolinamine mono hydrochloride]
maximum tolerated dose (MTD) ([1]; acute oral gavage, Swiss albino mice): 1000 mg/kg body weight
gross pathological examination ([1]; mice, after day 14): did not reveal any lesions of pathological significance
mean body weight and percent body weight ([1]; mice, compared with control groups): No significant alterations
toxic signs or mortality ([1]; mice, oral gavage, 250 mg/kg body weight (low dose) and 500 mg/kg (mid dose)): did not produce any toxic signs or mortality
clinical signs of toxicity ([1]; mice, listed as NRC-2694A blend): signs of lethargy and piloerection in all animals without any mortality
clinical signs of toxicity ([1]; mice): mild lethargy and piloerection
mortality ([1]; mice, oral, 250, 500 and 1000 mg/kg, 14 days observation): No mortality
median Tmax ([2]; day 1, female dogs, 10 mg/kg oral): 2 h
median Tmax ([2]; day 1, female dogs, 20 mg/kg oral): 4 h
median Tmax ([2]; day 1, female dogs, 40 mg/kg oral): 4 h
median Tmax ([2]; day 1, male dogs, 10 mg/kg oral): 2 h
median Tmax ([2]; day 1, male dogs, 20 mg/kg oral): 3 h
median Tmax ([2]; day 1, male dogs, 40 mg/kg oral): 2 h
median Tmax ([2]; day 30, female dogs, 10 mg/kg oral): 2 h
median Tmax ([2]; day 30, female dogs, 20 mg/kg oral): 4 h
median Tmax ([2]; day 30, male dogs, 10 mg/kg oral): 2 h
median Tmax ([2]; day 30, male dogs, 20 mg/kg oral): 3 h
Cmax, dose dependence ([2]; three dose levels, male and female dogs): dose-dependent change

C#Cc1cccc(Nc2ncnc3cc(OC)c(OCCCN4CCOCC4)cc23)c1 [NRC-2694, N-(3-ethylnylphenyl)-7-methoxy-6-[3-(4-morpholinyl)propoxy]-4-quinazolinamine]
% Ctrl @ 10000 nM (YANK2): 68 % Ctrl
% Ctrl @ 10000 nM (PRKCD): 84 % Ctrl
% Ctrl @ 10000 nM (DYRK1B): 66 % Ctrl
% Ctrl @ 10000 nM (DCAMKL2): 69 % Ctrl
% Ctrl @ 10000 nM (BMPR1A): 100 % Ctrl
% Ctrl @ 10000 nM (AKT1): 100 % Ctrl
% Ctrl @ 10000 nM (DCAMKL1): 92 % Ctrl
% Ctrl @ 10000 nM (CAMK2B): 77 % Ctrl
% Ctrl @ 10000 nM (MUSK): 100 % Ctrl
% Ctrl @ 10000 nM (ROS1): 46 % Ctrl
% Ctrl @ 10000 nM (FGFR1): 64 % Ctrl
% Ctrl @ 10000 nM [3]: 70 % Ctrl
